Results on 15 molecules are retold here after patent US7834030B2, “Phenyl-[1,2,4]-oxadiazol-5-one derivatives, pharmaceutical compositions and therapeutic use thereof” (Sanofi-Aventis, priority 2005, dated 2010).

SMILES strings stand for the structures.

In the experiment the target is T1, human PPARalpha (Homo sapiens, UniProt Q07869).
T1 construct: human PPARalpha receptor (amino acids S167-Y468); expressed in transfected cells; plasmid pcDNA3
T1 sequence (Q07869 167-468): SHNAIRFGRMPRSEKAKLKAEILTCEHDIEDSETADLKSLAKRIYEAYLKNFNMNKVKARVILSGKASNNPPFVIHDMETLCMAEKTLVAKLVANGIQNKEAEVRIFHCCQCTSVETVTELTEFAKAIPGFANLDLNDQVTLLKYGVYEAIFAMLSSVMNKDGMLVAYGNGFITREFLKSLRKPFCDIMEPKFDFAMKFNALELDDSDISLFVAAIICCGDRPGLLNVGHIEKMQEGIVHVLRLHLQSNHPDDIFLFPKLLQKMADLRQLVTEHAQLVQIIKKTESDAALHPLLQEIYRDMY
Nature of the experiment: cellular PPARalpha assay (GAL4 luciferase reporter, stably transfected HEK cell line). In kind it is cell-based. The protocol:
The activity of the compounds was tested through the determination of EC50 values of PPAR agonists in the cellular PPARalpha assay. The potency of substances which bind to human PPARalpha and activate it in an agonistic manner was analyzed using a stably transfected HEK cell line (HEK=human embryo kidney) which is referred to here as PPARalpha reporter cell line. It contains two genetic elements, a luciferase reporter element (pdeltaM-GAL4-Luc-Zeo) and a PPARalpha fusion protein (GR-GAL4-humanPPARalpha-LBD) which mediates expression of the luciferase reporter element depending on a PPARalpha ligand. The stably and constitutively expressed fusion protein GR-GAL4-humanPPARalpha-LBD binds in the cell nucleus of the PPARalpha reporter cell line via the GAL4 protein portion to the GAL4 DNA binding motifs 5′-upstream of the luciferase reporter element which is stably integrated in the genome of the cell line. There is only weak expression of the luciferase reporter gene in the absence of a PPARalpha ligand if fatty acid-depleted fetal calf serum (cs-FCS) is used in the assay. PPARalpha ligands bind and activate the PPARalpha fusion protein and thereby stimulate the expression of the luciferase reporter gene. The luciferase which is formed can be detected by means of chemiluminescence via an appropriate substrate.
The PPARalpha reporter cell line was prepared in two stages. Firstly, the luciferase reporter element was constructed and stably transfected into HEK cells. For this purpose, five binding sites of the yeast transcription factor GAL4 (Accession # AF264724) were cloned in 5′-upstream of a 68 bp-long minimal MMTV promoter (Accession # V01175). The minimal MMTV promoter section contains a CCAAT box and a TATA element in order to enable efficient transcription by RNA polymerase II. The cloning and sequencing of the GAL4-MMTV construct took place in analogy to the description of Sambrook J. et. al. (Molecular cloning, Cold Spring Harbor Laboratory Press, 1989). Then the complete Photinus pyralis gene (Accession # M15077) was cloned in 3′-downstream of the GAL4-MMTV element. After sequencing, the luciferase reporter element consisting of five GAL4 binding sites, MMTV promoter and luciferase gene was recloned into a plasmid which confers zeocin resistance in order to obtain the plasmid pdeltaM-GAL4-Luc-Zeo. This vector was transfected into HEK cells in accordance with the statements in Ausubel, F. M. et al. (Current protocols in molecular biology, Vol. 1-3, John Wiley & Sons, Inc., 1995).
In a second step, the PPARalpha fusion protein (GR-GAL4-humanPPARalpha-LBD was introduced into the stable cell clone described. For this purpose, initially the cDNA coding for the N-terminal 76 amino acids of the glucocorticoid receptor (Accession # P04150) was linked to the cDNA section coding for amino acids 1-147 of the yeast transcription factor GAL4 (Accession # P04386). The cDNA of the ligand-binding domain of the human PPARalpha receptor (amino acids S167-Y468; Accession # S74349) was cloned in at the 3′-end of this GR-GAL4 construct. The fusion construct prepared in this way (GR-GAL4-humanPPARalpha-LBD) was recloned into the plasmid pcDNA3 (Invitrogen) in order to enable constitutive expression therein by the cytomegalovirus promoter. This plasmid was linearized with a restriction endonuclease and stably transfected into the previously described cell clone containing the luciferase reporter element. The finished PPARalpha reporter cell line which contains a luciferase reporter element and constitutively expresses the PPARalpha fusion protein (GR-GAL4-human PPARalpha-LBD) was isolated by selection with zeocin (0.5 mg/ml) and G418 (0.5 mg/ml).
The activity of PPARalpha agonists was determined in a 3-day assay, which is described below: […]
(In general: In a reporter assay the amount or activity of a reporter protein is the signal.)
A word on the EC50: it is the concentration at which the effect is half-maximal. `CC[C@@H](Oc1ccc(-c2noc(=O)[nH]2)c(OC(F)F)c1)c1sc(-c2ccc(C(F)(F)F)cc2)nc1CN1CCC(C(F)(F)F)CC1` [(+)-45, (+)-3-(2-Difluoromethoxy-4-{(R)-1-[2-(4-trifluoromethyl-phenyl)-4-(4-trifluoromethyl-piperidin-1-ylmethyl)-thiazol-5-yl]-propoxy}-phenyl)-4H-1,2,4-oxadiazol-5-one]: the midpoint of the response, the EC50, lay at 1230 nM.

`Cc1nc(-c2ccc(C(F)(F)F)cc2)sc1C(Oc1ccc(-c2noc(=O)[nH]2)c(Cl)c1)C(F)(F)F` (racemic) [Example 20, 3-(2-Chloro-4-{2,2,2-trifluoro-1-[4-methyl-2-(4-trifluoromethyl-phenyl)-thiazol-5-yl]-ethoxy}-phenyl)-4H-[1,2,4]oxadiazol-5-one]: the EC50 came out at 307 nM.

Molecule `CCC(Oc1ccc(-c2noc(=O)[nH]2)c(OC(F)F)c1)c1sc(-c2ccc(C(F)(F)F)cc2)nc1C` (racemic) [Example 37, 3-(2-Difluoromethoxy-4-{1-[4-methyl-2-(4-trifluoromethyl-phenyl)-thiazol-5-yl]-propoxy}-phenyl)-4H-1,2,4-oxadiazol-5-one] yielded an EC50 of 223 nM.

Molecule `CCC(Oc1ccc(-c2noc(=O)[nH]2)c(F)c1)c1sc(-c2ccc(C(F)(F)F)cc2)nc1C` (racemic) [Example 35, 3-(2-Fluoro-4-{1-[4-methyl-2-(4-trifluoromethyl-phenyl)-thiazol-5-yl]-propoxy}-phenyl)-4H-1,2,4-oxadiazol-5-one] displayed a 50% effective concentration (EC50) of 269 nM.

`CCC(Oc1ccc(-c2noc(=O)[nH]2)c(OCC(F)(F)F)c1)c1sc(-c2ccc(C(F)(F)F)cc2)nc1C` (racemic) [Example 48, 3-[4-{1-[4-Methyl-2-(4-trifluoromethyl-phenyl)-thiazol-5-yl]-propoxy}-2-(2,2,2-trifluoro-ethoxy)-phenyl]-4H-1,2,4-oxadiazol-5-one] gave a 50% effective concentration (EC50) of 87 nM.

Molecule `CCC(Oc1ccc(-c2noc(=O)[nH]2)c(C2CC2)c1)c1sc(-c2ccc(C(F)(F)F)cc2)nc1C` (racemic) [Example 16, 3-(2-Cyclopropyl-4-{1-[4-methyl-2-(4-trifluoromethyl-Phenyl)-thiazol-5-yl]-propoxy}-phenyl)-4H-[1,2,4]oxadiazol-5-one] showed an EC50 of 117 nM.

The molecule `Cc1nc(-c2ccc(C(F)(F)F)cc2)sc1C(OCc1ccc(-c2noc(=O)[nH]2)c(Cl)n1)C(F)(F)F` (racemic) [Example 27, 3-(2-Chloro-6-{2,2,2-trifluoro-1-[4-methyl-2-(4-trifluoromethyl-phenyl)-thiazol-5-yl]-ethoxymethyl}-pyridin-3-yl)-4H-[1,2,4]oxadiazol-5-one] yielded an EC50 of 1210 nM.

Molecule `CCCCC(Cc1ccc(-c2noc(=O)[nH]2)c(F)c1)c1sc(-c2ccc(C(F)(F)F)cc2)nc1C` (racemic) [Example 34, 3-(2-Fluoro-4-{2-[4-methyl-2-(4-trifluoromethyl-phenyl)-thiazol-5-yl]-hexyl}-phenyl)-4H-[1,2,4]oxadiazol-5-one] yielded an EC50 of 1070 nM.

Molecule `Cc1nc(-c2ccc(C(F)(F)F)cc2)sc1C(OCc1ccc(-c2noc(=O)[nH]2)c2cccnc12)C(F)(F)F` (racemic) [Example 25, 3-(8-{2,2,2-Trifluoro-1-[4-methyl-2-(4-trifluoromethyl-phenyl)-thiazol-5-yl]-ethoxymethyl}-quinolin-5-yl)-4H-[1,2,4]oxadiazol-5-one] showed an EC50 of 544 nM.

`Cc1nc(-c2ccc(C(F)(F)F)cc2)sc1C(OCc1ccc(-c2noc(=O)[nH]2)cc1)C(F)(F)C1CC1` (racemic) [Example 32, 3-(4-{2-Cyclopropyl-2,2-difluoro-1-[4-methyl-2-(4-trifluoromethyl-phenyl)-thiazol-5-yl]-ethoxymethyl}-phenyl)-4H-[1,2,4]oxadiazol-5-one] showed a half-maximal effective concentration (EC50) above 33000 nM.

`CCC(Oc1ccc(-c2noc(=O)[nH]2)c(OC)c1)c1sc(-c2ccc(C(F)(F)F)cc2)nc1CN1CCC(C(F)(F)F)CC1` (racemic) [Example 42, 3-(2-Methoxy-4-{1-[2-(4-trifluoromethyl-phenyl)-4-(4-trifluoromethyl-piperidin-1-ylmethyl)-thiazol-5-yl]-propoxy}-phenyl)-4H-1,2,4-oxadiazol-5-one] registered an EC50 above 33000 nM.

With `CC[C@@H](Oc1cc(OC)c(-c2noc(=O)[nH]2)cc1F)c1sc(-c2ccc(C(F)(F)F)cc2)nc1C` [(+)-40, (+)-3-(5-Fluoro-2-methoxy-4-{(R)-1-[4-methyl-2-(4-trifluoromethyl-phenyl)-thiazol-5-yl]-propoxy}-phenyl)-4H-1,2,4-oxadiazol-5-one], the EC50 was found to be 677 nM.

In turn, `Cc1nc(-c2ccc(C(F)(F)F)cc2)sc1C(OCc1ccc(-c2noc(=O)[nH]2)c(F)c1)C(F)(F)F` (racemic) [Example 22, 3-(2-Fluoro-4-{2,2,2-trifluoro-1-[4-methyl-2-(4-trifluoromethyl-phenyl)-thiazol-5-yl]-ethoxymethyl}-phenyl)-4H-[1,2,4]oxadiazol-5-one] had an EC50 of 2640 nM.

In turn, `Cc1nc(-c2ccc(C(F)(F)F)cc2)sc1C(Cc1ccccn1)Oc1ccc(-c2noc(=O)[nH]2)c(Cl)c1` (racemic) [Example 10, 3-(2-Chloro-4-{1-[4-methyl-2-(4-trifluoromethyl-phenyl)-thiazol-5-yl]-2-pyridin-2-yl-ethoxy}-phenyl)-4H-[1,2,4]oxadiazol-5-one] came in with an EC50 of 4380 nM.

In the case of `CCC(Oc1ccc(-c2noc(=O)[nH]2)c(Cl)c1)c1sc(-c2ccc(C(F)(F)F)cc2)nc1C` (racemic) [Example 4, 3-(2-Chloro-4-{1-[4-methyl-2-(4-trifluoromethyl-phenyl)-thiazol-5-yl]-propoxy}-phenyl)-4H-[1,2,4]oxadiazol-5-one], the EC50 was found to be 12 nM.
